Results published in US12551578B2, “Compound or salt thereof” (SHIZUOKA PREFECTURAL UNIVERSITY CORPORATION, priority 2019, dated 2026).

How the values were obtained:
bovine thymus DNA [1] = assay: DNA intercalation analysis by shift of absorption wavelength (bathochromic effect); type: binding; settings: for Absorption wavelength difference: DNA 30 μg/mL versus 0 μg/mL; for intercalation into DNA judged from absorption wavelength shift: Table 2; for DNA0: Absorption wavelength when DNA concentration was 0 μg/mL / DNA30: Absorption wavelength when DNA concentration was 30 μg/mL: compound 10 μg/mL in 0.1 M Tris-HCl, peak top wavelength
Procedure: In addition, since the absorption spectrum shifted to the long wavelength side due to intercalation of the compound between base pairs of DNA (bathochromic effect), the shift of the absorption wavelength was measured by mixing DNA and the compound. Specifically, the compounds shown in Table 2 were dissolved in a 0.1 M Tris-HCl buffer solution at 10 μg/mL, and bovine thymus DNA was added thereto at 0 μg/mL or 30 μg/mL to prepare measurement samples. Then, the absorption spectrum of each measurement sample was measured, and the absorption wavelength (peak top wavelength) was determined.

[2] = Quantum yield and molar absorption coefficient (Table 1); type: physicochemical
bovine thymus DNA [3] = assay: DNA intercalation analysis by fluorescence intensity on mixing with DNA; type: binding; settings: for intercalation into DNA judged from fluorescence intensity: FIG. 4 and Table 1; for Fluorescence intensity ratio (DNA20/DNA0): compound 10 μg/mL in 0.1 M Tris-HCl pH 7.5, DNA 20 μg/mL versus 0 μg/mL
Procedure: Since the fluorescence intensity was improved due to intercalation of the compound between base pairs of DNA, the fluorescence intensity was measured by mixing DNA and the compound. First, the compounds shown in Table 1 were dissolved in a 0.1 M Tris-HCl buffer solution (pH 7.5) at 10 μg/mL, and bovine thymus DNA was added thereto at 0 μg/mL, 5 μg/mL, 10 μg/mL or 20 μg/mL to prepare measurement samples. Then, the fluorescence intensity of each measurement sample was measured (excitation wavelength 355 to 536 nm, fluorescence wavelength of 420 to 605 nm). In Table 1, the fluorescence intensity ratio is a ratio (DNA20/DNA0) of the fluorescence intensity (DNA20) when the DNA concentration was 20 μg/mL and the fluorescence intensity (DNA0) when the DNA concentration was 0 μg/mL.

[4] = test system: reactive oxygen species in the brain (right striatum); assay: PET measurement of probe accumulation in SNP model rats; type: in vivo, rat; settings: for ratio of radioactivity accumulated amount (SUV) between right striatum (SNP) and left striatum (control): 20 MBq i.v. bolus, 30-45 minutes after administration, FIGS. 2(E) and 2(F)
Procedure: Accumulation of [^18F]FHM, [^18F]FPHM and [^11C]HM was analyzed using rats in which reactive oxygen species were produced in the brain (right striatum) to which sodium nitroprusside (SNP) has been administered.
While rats were anesthetized with 1.5-2.0% isoflurane (dilution gas:oxygen), 4 μL of a 20 nmol/μL SNP solution (saline) was injected into the right striatum of the rat at a rate of 0.8 μL/min using a Hamilton syringe (26 gauge). 4 μL of a saline was injected into the left striatum in the same method. PET measurement was performed on SNP-administered rats (SNP model rats) 60 minutes after SNP administration.
After transmission measurement was performed for 15 minutes for absorption correction, a bolus of 20 MBq [^18F]FHM, [^18F]FPHM or [^11C]HM was administered from the caudal vein of the rat, and emission measurement was performed for 90 minutes. After PET measurement was completed, the PET accumulation images of the brain 0-15 minutes, 15-30 minutes, 30-45 minutes, 45-60 minutes, 60-75 minutes, and 75-90 minutes after [^18F]FHM, [^18F]FPHM or [^11C]HM was administered were superimposed on the brain CT images. Regions of interest were set on the PET images of the right striatum and the left striatum identified from the X-CT images, and the value normalized according to the body weight of each individual subject and the administered radioactivity amount was used as the amount of [^18F]FHM, […] or […] accumulated at each site (radioactivity accumulated amount (SUV)) (each group, 5 rats).
In addition, as a control, PET measurement was performed on rats in which only a saline was administered to both the right striatum and the left striatum (control rat) in the same method as above.

[5] = test system: reactive oxygen species in the brain (right striatum); assay: Brain fluorescence imaging in SNP model rats; type: in vivo, rat; settings: 5 mg/kg i.v. bolus, brain extracted 1 hour after administration, compared to DHE, FIG. 5
Procedure: 4 μL of a 20 nmol/μL SNP solution (phosphate buffered saline (PBS) solution) was injected into the right striatum of the rat at a rate of 0.8 μL/min using a Hamilton syringe (26 gauge). 4 μL of PBS was injected into the left striatum in the same method. A bolus of 5 mg/kg DHE or isopropyl reduced component was administered from the caudal vein of the rat 60 minutes after SNP administration for SNP-administered rats (SNP model rats). The brain was extracted 1 hour after administration and a 20 μm-thick frozen section was prepared. Brain fluorescence images were obtained by a scanner type image analysis device (FLA700: excitation wavelength of 532 nm, filter 580 nm).

Row | Structure (SMILES) | Absorption wavelength difference (bovine thymus DNA [1]) [nm] | intercalation into DNA judged from absorption wavelength shift (bovine thymus DNA [1]) | DNA0: Absorption wavelength when DNA concentration was 0 μg/mL (bovine thymus DNA [1]) [nm] | DNA30: Absorption wavelength when DNA concentration was 30 μg/mL (bovine thymus DNA [1]) [nm] | ε · ϕ (molar absorption coefficient x quantum yield) [2] | ϕ: quantum yield [2] | intercalation into DNA judged from fluorescence intensity (bovine thymus DNA [3]) | Fluorescence intensity ratio (DNA20/DNA0) (bovine thymus DNA [3]) | ratio of radioactivity accumulated amount (SUV) between right striatum (SNP) and left striatum (control) [4] | radioactivity accumulated amount in the right striatum, comparison of probes ([4]; FIGS. 2(A) and 2(B)) | accumulation in the right striatum to which SNP has been administered (brain fluorescence images) [5]
1 | CN1c2cc(NC3CCC3)ccc2-c2ccc(NC3CCC3)cc2C1c1ccccc1 (stereo not drawn) [Cyclobutyl form] | 18 | almost no intercalation into DNA occurred | 557 | 575 | 47.04 | 3.62 10^−3 | almost no intercalation into DNA occurred | 1.62 |  |  | 
2 | CC(C)N(c1ccc2c(c1)C(c1ccccc1)N(C)c1cc(N(C(C)C)C(C)C)ccc1-2)C(C)C (stereo not drawn) [Di-isopropyl form] | 4 | almost no intercalation into DNA occurred | 559 | 563 | 118.8 | 8.48 10^−3 | almost no intercalation into DNA occurred | 0.759 |  |  | 
3 | CC(C)Nc1ccc2c(c1)C(c1ccccc1)N(C)c1cc(NC(C)C)ccc1-2 (stereo not drawn) [Isopropyl form] | 8 | almost no intercalation into DNA occurred | 517 | 525 | 568.8 | 40.6 10^−3 | almost no intercalation into DNA occurred | 0.996 |  |  | 
4 | C[n+]1c(-c2ccccc2)c2cc(N)ccc2c2ccc(N)cc21 [Methidium, reference compound] | 40 | intercalation into DNA occurred | 481 | 521 | 97.34 | 2.68 10^−3 | intercalation into DNA occurred | 3.03 |  |  | 
5 | [11CH3]N1c2cc(N)ccc2-c2ccc(N)cc2C1c1ccccc1 (stereo not drawn) [[^11C]HM, reference compound] |  |  |  |  |  |  |  |  | about 3 times |  | 
6 | CN1c2cc(N)ccc2-c2ccc(N)cc2C1c1ccc([18F])cc1 (stereo not drawn) [[^18F]FHM] |  |  |  |  |  |  |  |  | about 5 times | larger in [^18F]FHM than in [^11C]HM | 
7 | CC(C)Nc1ccc2c(c1)C(c1ccc(F)cc1)N(C)c1cc(NC(C)C)ccc1-2 (stereo not drawn) [isopropyl reduced component] |  |  |  |  |  |  |  |  |  |  | a large amount of accumulation in the right striatum
